Peptide text beside a SMILES is read from it.

Here are results for one compound from patent US12247087B2, “Biological active peptide for improving enzyme activity of ACE2 and application thereof” (priority 2023, dated 2025).

One assay addresses T1, ACE2 (Mus musculus, UniProt Q8R0I0).
T1 construct: taking 50 mg mice liver tissue, adding 500 μL lysis solution to perform the homogenization treatment; from tissue; host or cells: mouse liver tissue homogenate supernatant
The assay can be described thus: ACE2 active fluorescence detection kit, influence of SCOL polypeptide on ACE2 enzyme activity in mice liver tissue supernatant. In kind it is biochemical. As for the experimental part:
Detection was performed by using Biyuntian ACE2 active fluorescence detection kit; the principle was as follows. […] When the substrate was fully cut by the ACE2, two ends of the polypeptide were separated, two fluorophores were separated, which led to detection of the fluorescence, such that the enzyme activity of the ACE2 protein enzyme can be sensitively detected by the fluorescence detection.
(1) preparation of samples: taking 50 mg mice liver tissue, adding 500 μL lysis solution to perform the homogenization treatment, centrifuging at 4° C. under 12000×g for 5 min, taking the supernatant for next step; […]
(3) adding 2 μL substrates in the 96 hole plate, individually adding 2.2 μL with concentration of 0.004, 0.008, 0.012, 0.016, 0.02 μg/μL of the total concentration in the PCR tubes, adding 8.8 μL supernatant sample in step (1), adding 96.8 μL buffer; and adding 11 μL lysis solution and 96.8 μL buffer in a blank control, mixing, sucking above 98 μL solution by a volley gun and adding to the 96 hole plate with substrates. Performing fluorescence detection by a fluorescence microplate reader after mixing, in particular, the setting temperature was at 37° C., the excitation wavelength was 325 nm, and the emission wavelength was 393 nm. […]

In assay [1] the target is T2, novel coronavirus S protein-ACE2 protein binding (Homo sapiens, UniProt Q9BYF1).
T2 construct: purchased RayBio
Description: biochemical.

T1 sequence (Q8R0I0 18-805): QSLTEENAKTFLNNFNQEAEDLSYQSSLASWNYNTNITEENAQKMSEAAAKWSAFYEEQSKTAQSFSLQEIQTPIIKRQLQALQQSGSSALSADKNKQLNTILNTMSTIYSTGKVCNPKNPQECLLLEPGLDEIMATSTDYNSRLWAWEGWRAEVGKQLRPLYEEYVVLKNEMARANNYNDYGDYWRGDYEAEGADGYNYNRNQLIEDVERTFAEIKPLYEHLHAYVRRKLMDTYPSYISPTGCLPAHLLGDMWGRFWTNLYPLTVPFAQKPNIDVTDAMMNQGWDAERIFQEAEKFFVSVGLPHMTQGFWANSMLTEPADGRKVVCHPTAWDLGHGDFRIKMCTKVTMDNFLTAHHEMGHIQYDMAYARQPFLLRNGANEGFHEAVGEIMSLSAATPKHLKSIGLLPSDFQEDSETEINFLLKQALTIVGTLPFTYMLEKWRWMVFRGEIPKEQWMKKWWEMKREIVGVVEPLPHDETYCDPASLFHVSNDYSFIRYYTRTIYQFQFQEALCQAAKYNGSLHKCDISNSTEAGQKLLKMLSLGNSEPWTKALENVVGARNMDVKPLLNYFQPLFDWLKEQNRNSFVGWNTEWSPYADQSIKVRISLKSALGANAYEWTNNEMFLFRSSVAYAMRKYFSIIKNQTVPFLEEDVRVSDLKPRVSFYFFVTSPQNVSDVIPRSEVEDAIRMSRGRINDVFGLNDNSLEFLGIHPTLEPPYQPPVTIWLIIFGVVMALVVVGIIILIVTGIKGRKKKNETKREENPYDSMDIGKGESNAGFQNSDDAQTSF
T2 sequence (Q9BYF1 18-740): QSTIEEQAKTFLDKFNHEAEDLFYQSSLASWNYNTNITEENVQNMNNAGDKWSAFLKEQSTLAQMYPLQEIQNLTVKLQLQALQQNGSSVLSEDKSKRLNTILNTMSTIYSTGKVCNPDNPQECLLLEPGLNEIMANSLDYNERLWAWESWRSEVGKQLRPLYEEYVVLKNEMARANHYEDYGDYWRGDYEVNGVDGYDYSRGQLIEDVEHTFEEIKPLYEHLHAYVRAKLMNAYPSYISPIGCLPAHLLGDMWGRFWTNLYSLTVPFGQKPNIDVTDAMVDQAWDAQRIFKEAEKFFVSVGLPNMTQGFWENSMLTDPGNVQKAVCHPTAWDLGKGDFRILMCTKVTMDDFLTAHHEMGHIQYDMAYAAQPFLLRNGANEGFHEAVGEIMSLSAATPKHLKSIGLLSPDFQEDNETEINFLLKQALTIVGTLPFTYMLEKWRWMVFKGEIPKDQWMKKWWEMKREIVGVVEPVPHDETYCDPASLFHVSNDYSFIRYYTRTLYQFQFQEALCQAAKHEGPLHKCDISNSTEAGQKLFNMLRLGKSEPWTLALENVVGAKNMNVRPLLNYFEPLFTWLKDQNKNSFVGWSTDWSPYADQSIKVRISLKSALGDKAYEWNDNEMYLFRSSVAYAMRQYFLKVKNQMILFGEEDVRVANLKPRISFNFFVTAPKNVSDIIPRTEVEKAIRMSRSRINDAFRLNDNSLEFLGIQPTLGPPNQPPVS

What is called inhibition is the change of the read-out against control, counted positive when it falls. Turning to `CC[C@H](C)[C@H](N)C(=O)N1CCC[C@H]1C(=O)N[C@@H](CO)C(=O)N[C@H](C(=O)N[C@H](C(=O)N1CCC[C@H]1C(=O)N[C@@H](Cc1ccccc1)C(=O)N1CCC[C@H]1C(=O)N[C@@H](CO)C(=O)N[C@H](C(=O)N[C@H](C(=O)N[C@H](C(=O)N[C@@H](C)C(=O)N[C@H](C(=O)N[C@H](C(=O)N[C@H](C(=O)N[C@@H](CCSC)C(=O)O)[C@@H](C)O)[C@@H](C)O)[C@@H](C)O)C(C)C)[C@@H](C)O)[C@@H](C)O)[C@@H](C)O)[C@@H](C)O` [SCOL peptide, Ile-Pro-Ser-Thr-Thr-Pro-Phe-Pro-Ser-Thr-Thr-Val-Ala-Thr-Thr-Thr-Met] (H-IPSTTPFPSTTVATTTM-OH; N-terminus and C-terminus assumed), the “activity of the ACE2 in the samples with the increase of the SCOL polypeptide concentration” value on ACE2 (0.004-0.02 μg/μL) is “increasing trend”. In addition, the “highest ACE2 activity relative to the initial activity” value on ACE2 (SCOL polypeptide concentration 0.02 μg/μL, 37° C.) is on record as 3.76 times. The “effect on S protein-ACE2 binding compared with the control group” value in assay [1] is given as “inhibiting effect”. Also, the inhibition at 800 µg/mL in assay [1] (read-out: highest inhibition rate of binding between S protein and ACE2) was 65%.
